# Like-named read-outs stand apart in the source and are kept apart here.
# Assays:
# [1] = system: Rhinovirus (RV, subtype 14); assay: Curative approach, plaque reduction assay; type: cell-based; conditions: active control at concentrations between 5-50 µg mL^-1
# [2] = system: Respiratory Syncytial Virus (RSV, type long strain); assay: Curative approach, plaque reduction assay; type: cell-based; conditions: active control at concentrations between 5-50 µg mL^-1
# [3] = system: Influenza A virus (Flu A, H1N1); assay: Curative approach, plaque reduction assay; type: cell-based
# Herpes simplex = conditions: added to the assays after infection; cited from earlier work
# [4] = system: Respiratory Syncytial Virus (RSV, type long strain); assay: Virucidal (preventive) approach, pretreatment of cell-free virus, plaque forming units; type: cell-based; conditions: positive control at 0.3%; 2 and 24 h incubation
# [5] = system: Rhinovirus (RV, subtype 14); assay: as above; type: cell-based; conditions: positive control at 0.3%; 2 and 24 h incubation
# [6] = system: Influenza A virus (Flu A, H1N1); assay: as above; type: cell-based; conditions: positive control at 0.3%; 2 and 24 h incubation
# [7] = system: Adenovirus C (AV, subtype 5); type: cell-based; conditions: positive control at 0.3%
compound,measurement,setting,value
"NC(=O)c1ncn([C@@H]2O[C@H](CO)[C@@H](O)[C@H]2O)n1 [Ribavirin, ribavirin]",inhibited plaque formation,[1],70-96%
same,inhibited plaque formation,[2],70-96%
same,"plaque formation (visual, Fig. 3)",[3]; active control,prevented plaque formation almost completely
same,inhibited plaque formation,[3]; active control at concentrations between 5-50 µg mL^-1,70-96%
Nc1nc2c(ncn2COCCO)c(=O)[nH]1 [acyclovir],reduction of Herpes simplex induced plaques,Herpes simplex,100%
"CCCCCCCCCCCCOS(=O)(=O)[O-].[Na+] [SDS, Sodium dodecyl sulfate]",lowered infectivity,[4],56-100%
same,lowered infectivity,[5],56-100%
same,lowered infectivity,[6],56-100%
same,lowered infectivity,[7]; 2 h incubation,52%
same,lowered infectivity,[7]; 24 h incubation,63%
C=C1CCC2CC1C2(C)C (stereo not drawn) [β-pinene],reduction of Herpes simplex induced plaques,Herpes simplex,10-20%
CC1=CCC2CC1C2(C)C (stereo not drawn) [α-pinene],reduction of Herpes simplex induced plaques,Herpes simplex,30-40%
C=C(C)[C@H]1CC=C(C)CC1 [limonene],reduction of Herpes simplex induced plaques,Herpes simplex,10-20%
"CC12CCC(CC1)C(C)(C)O2 [1,8-cineol]",reduction of Herpes simplex induced plaques,Herpes simplex,30-40%

# Source: patent EP3964221A1, “ANTIVIRAL AGENTS” (priority 2020, dated 2022)
